Legend:
[1] = system: OV-90 MUC1* negative ovarian cancer cells; assay: cancer cell proliferation assay (Calcein); type: cell-based; conditions: 96 hours (FIG. 114)
Experimental: (§1) Small molecule inhibition of cancer cell proliferation studies were also performed on several cancer sub-types. […] The small molecules of the invention had the most robust effect on T47D breast cancer cells, which are highly positive for MUC1* growth factor receptor, and its activating ligands NME7AB and NME7-X1. […] For the cancer cell proliferation experiment cancer cells were plated at constant densities (6000 cells/well) into a 96-well White-walled/Clear-bottom Tissue Culture Treated plate (Corning Incorporated, Big Flats, N.Y.). Small molecule analogs are added at T=24 hours in media with 2% FBS. Following the addition of the small molecules, the cells remain untouched for 120 hours with visual confirmations/inspections at 24, 48, 72 and 96 hours post plating. At the 120 hour mark a calcein fluorescence assay (Thermo Fisher Scientific, Waltham, Mass.) is performed on the plate. Calcein fluorescence (final concentration 0.5 uM) is used to assess cell viability. Cancer cell fluorescence is measured in a TECAN SAFIRE^2 spectrophotometer plate reader. The plate is then imaged using an Olympus IX71 fluorescence imaging microscope and montage of the resulting images are assembled using ImageJ.

T47D breast cancer cells = assay: cancer cell proliferation assay (Calcein live cell stain); type: cell-based, human; conditions: live cell Calcein stain, 96 hours (FIG. 113)
Experimental: These analogs of MN1194 and 1186 were also tested in a cell growth assay (FIGS. 107A1-107H6 and FIG. 108A1-108H6, respectively). In this experiment, both parent compound and analogs thereof were added to normal cell culture media to final concentrations of 40 uM, 20 uM, 10 uM, 5 uM or 2.5 uM. For comparison, previously known cancer cell migration inhibitors SU11274 and MN1204 were included in the same experiment. […] Relative cell proliferation is quantified on a standard plate reader that reads the fluorescence of the Calcein that is taken up by live cells.
Small molecule inhibition of cancer cell proliferation studies were also performed on several cancer sub-types. […] The small molecules of the invention had the most robust effect on T47D breast cancer cells, which are highly positive for MUC1* growth factor receptor, and its activating ligands NME7AB and NME7-X1.
For the cancer cell proliferation experiment cancer cells were plated at constant densities (6000 cells/well) into a 96-well White-walled/Clear-bottom Tissue Culture Treated plate (Corning Incorporated, Big Flats, N.Y.). Small molecule analogs are added at T=24 hours in media with 2% FBS. Following the addition of the small molecules, the cells remain untouched for 120 hours with visual confirmations/inspections at 24, 48, 72 and 96 hours post plating. At the 120 hour mark a calcein fluorescence assay (Thermo Fisher Scientific, Waltham, Mass.) is performed on the plate. Calcein fluorescence (final concentration 0.5 uM) is used to assess cell viability. Cancer cell fluorescence is measured in a TECAN SAFIRE^2 spectrophotometer plate reader. The plate is then imaged using an Olympus IX71 fluorescence imaging microscope and montage of the resulting images are assembled using ImageJ.

[2] = system: E-cadherin, fibronectin, vimentin and NF1 expression in naïve stem cells; assay: RT-PCR of differentiation markers in treated naïve stem cells; type: cell-based, human
Experimental: FIG. 161 is a graph of RT-PCR measurement of naïve stem cells that have been treated with compounds of the invention. The genes whose expression is measured are E-cadherin, which goes […] as cells undergo epithelial to mesenchymal transition, fibronectin and vimentin, which both increase as stem cells initiate differentiation and NF1, which is one of the first genes to increase when stem cells begin to differentiate down the neural lineage. […] E-cadherin is the opposite; it […] as cells become cancerous. […] Expression of metastatic marker E-cadherin was reduced and expression of differentiation markers fibronectin, vimentin and NF1 were increased (FIG. 162-FIG. 163). Novel compounds of the invention are highly specific. […] Although we discovered that NME1 dimers, NME7AB and NME7-X1 are all activating ligands of the MUC1* growth factor receptor and they bind to its extracellular domain, we have developed ample evidence that both NME7AB and NME7-X1 have other binding partners and can exert oncogenic effects, independent of MUC1*.

[3] = system: SK-OV-3 MUC1* positive ovarian cancer cells; assay: cancer cell proliferation assay (Calcein); type: cell-based; conditions: 96 hours (FIG. 112)
Experimental: as §1, with “[…] […]” for “Following the addition of the small molecules, the cells remain untouched for 120 hours with visual confirmations/inspections at 24, 48, 72 and 96 hours post plating. At the 120 hour mark a calcein fluorescence assay (Thermo Fisher Scientific, Waltham, Mass.) is performed on the plate.”

[4] = system: MUC1* positive cancer cells; assay: cancer cell growth in vitro (previously shown); type: cell-based
[5] = system: human naïve state stem cells; assay: stem cell drug screening assay on naïve state stem cells; type: cell-based; conditions: 6 uM, 3 days
Experimental: The stem cell screening assay, was performed in both the presence and absence of the stem cell growth factors: NME7AB for growing naïve stem cells or FGF for growing primed stem cells. If the cognate growth factor was present, then the biological or small molecule would have to compete away the growth factor to get an effect. Therefore, we expected to see more of an effect when the growth factor, FGF for primed stem cells or NME7AB or NME1 dimers for naïve stem cells, was absent. The effect of the compounds on stem cells was visually determined and compounds were ranked 0-4, with 4 being the greatest effect and 0 being no observable effect. The major effect that was observed was a change from pluripotent stem cell morphology, which is a cobblestone pattern of small round cells with a large nucleus to cytoplasm ratio, to that of differentiating stem cells, which are elongated, large and flattened cells with a smaller nucleus to cytoplasm ratio. […] The compounds were added to a final concentration of 6 uM to either naïve state stem cells or primed state stem cells. In this particular case, the naïve state stem cells were maintained in a naïve state by culturing in a media containing NME7AB or NME1 dimers. However, other methods such as 2i and 5i (Silva et al., 2008, Nichols and Smith, 2009, Theunissen et al., 2014)] can be used to maintain stem cells in a more naïve state. In this case primed state stem cells were cultured in bFGF over a layer of MEFs, although it is known that any bFGF containing media will maintain stem cells in the primed state.
Stem cells whether embryonic or induced pluripotent stem (iPS) cells were cultured in a minimal, serum-free media that contained human recombinant NME7AB at a concentration of 2-32 nM wherein 4-8 nM is preferred and 4 nM is more preferred. To facilitate surface attachment, cell culture plates were coated with an anti-MUC1* monoclonal antibody called MN-C3 or C3 or MN-C8 at a concentration of 2-100 ug/mL coating solution, wherein 3-50 ug/mL is preferred and 6-12.5 ug/mL is more preferred. In these experiments, 12.5 ug/mL of MN-C3 was used. Antibody coated plates were incubated at 4 degrees C. overnight prior to plating stem cells. A Rho kinase I inhibitor was added to enhance surface attachment. In some cases, NME7AB was substituted with human recombinant NME1 dimers which also induce stem cells to revert to a naïve-like state.
Human naïve state and primed stem cells were cultured in parallel for at least 5 passages to guarantee normal differentiation-free growth. The stem cells were plated in 12-well cell culture plates with 50,000 cells per well. Cells were cultured in their respective media, either bFGF media or NME7AB media for 24 hours. Media was then removed and replaced with media devoid of bFGF or NME7AB, when indicated. Agents being tested for their ability to induce differentiation of naïve stem cells were added to the media at the concentrations indicated. After 72 hours, photographs were taken see FIGS. 1-10.
Human naïve state and primed stem cells were cultured in parallel for at least 5 passages to guarantee normal differentiation-free growth. The stem cells were plated in 12-well cell culture plates with 50,000 cells per well. Cells were cultured in their respective media, either bFGF media or NME7AB media for 24 hours. Media was then removed and replaced with media devoid of bFGF or NME7AB. […] Media was changed after 48 hours and replaced with fresh media containing the BRD4 inhibitors. After 4 days the experiment was stopped. Photographs were taken and cell pellets collected for further analysis, see FIGS. 11-16.

[6] = system: NME7AB-induced transition of regular cancer cells to metastatic cancer cells; assay: transition of regular cancer cells to metastatic cancer cells (previously shown); type: cell-based

Cc1[nH]c(/C=C2\C(=O)Nc3ccc(S(=O)(=O)N(C)c4cccc(Cl)c4)cc32)c(C)c1C(=O)N1CCN(C)CC1 [SU11274]
effect on growth of OV-90 cells [1]: neither the compounds of the invention nor JQ1 or SU11274 had any apparent effect | inhibition of growth of T47D cells (T47D breast cancer cells): inhibited growth | up-regulation of markers of differentiation in naïve stem cells (RT-PCR) [2]: did not cause up-regulation of markers of differentiation | effect on growth of SK-OV-3 cells [3]: no effect

COC(=O)c1ccc(C2c3[nH]c4ccccc4c3CCN2C(=O)c2cccc(Cl)c2)cc1 (stereo not drawn) [MN0642]
inhibition of cancer cell growth in vitro [4]: inhibit the growth of cancer cells in vitro | effect on naïve stem cell pluripotency, growth or differentiation (visually determined) [5]: induced differentiation

FLR peptide: synthetic peptide corresponding to the extracellular domain of MUC1*, PSMGFR, SEQ ID NO:3 (GTINVHDVETQFNQYKTEAASRYNLTISDVSVSDVPFPFSAQSGA; the extracellular domain of Native Primary Sequence of the MUC1 Growth Factor Receptor (nat-PSMGFR - an example of “PSMGFR”))
effect on naïve stem cell pluripotency, growth or differentiation (visually determined) [5]: induced differentiation | inhibition of transition of regular cancer cells to metastatic cancer cells [6]: inhibit the transition of regular cancer cells to metastatic cancer cells

CC(C)C1c2[nH]c3ccccc3c2CCN1C(=O)CCCCNC(=O)OC(C)(C)C (stereo not drawn) [MN1235]
up-regulation of markers of differentiation in naïve stem cells (RT-PCR) [2]: failed to induce differentiation

Source: US11931347B2, “Method of screening for agents for differentiating stem cells” (MINERVA BIOTECHNOLOGIES CORPORATION, priority 2015, dated 2024)
